# Reference: US11459293B2, “Compositions and methods of making expanded hematopoietic stem cells using derivatives of fluorene” (ImmuneBridge Inc., priority 2017, dated 2022)
# How the values were obtained:
# [1] = tested on: hematopoietic stem cells derived from cord blood; assay: Enhancement of hematopoietic stem cells from cord blood cultured with Compound 1.008, flow cytometry up to 19 days (Example 34); format: cell-based
# Protocol: A frozen cord blood sample was thawed and gradually brought to room temperature. Thawed cord blood was incubated in an in vitro culture media of Alpha MEM without phenol red, 10% (v/v) heat inactivated fetal bovine serum (FBS). Four samples were tested: Base conditions, +SF Conditions, +1.008 Conditions, and +1.008/+ER conditions. The components included in each condition is described in Table 4. Each condition tested also included an antibiotic solution that includes penicillin, streptomycin, and amphotericin B to avoid contamination.
# (§1) Cultures were incubated at 3% oxygen (controlled by nitrogen) and 5% CO2.
# Small molecule components were added separately and fresh each time the media needs to be refreshed. Cytokines can be stored together. Media renewal should occur at least every few days.
# On the days indicated varying amounts of the cell culture was removed for data analysis (flow cytometry using a BD FACS ARIA II) and to avoid overcrowding of cells. The culture volume was replenished with fresh media according to the conditions tested. The data reported accounts for the dilution factor introduced in this procedure.
# [2] = tested on: CD34+ cells from non-mobilized peripheral blood; assay: Long-term (21 days) expansion with Compound 1.010, non-mobilized peripheral blood (Example 36); format: cell-based, human; conditions: Compound 1.010 8 μM
# Protocol: CD34+ cells from non-mobilized peripheral blood were purchased from STEMCELL Technologies. Primary human CD34+ cells were isolated from blood samples using positive immunomagnetic separation techniques.
# Cryspreserved CD34+ cell samples from each source were thawed and gradually brought to room temperature. Samples were washed then placed in overnight culture in StemSpan with 100 ng/ml each of FLT3L, TPO, SCF, and IL-6.
# as §1
# Twenty-four hours later (day 1), cells were counted and immunophenotyped (flow cytometry on an Invitrogen Attune NxT cytometer). […] Exact cell numbers dispensed per condition were quantified for later calculations of fold change from day 1.
# Wells were analyzed at days 7 and 10, flasks were analyzed at 14 and 21 days of incubation. Cell numbers and phenotypes were quantified with flow cytometry. […] An additional seven days later (day 21 of culture), cell numbers and phenotypes were again quantified with flow cytometry. Cell numbers calculated at day 21 account for the passaging of the cells.
# Conditions in 96-well plates were prepared in quadruplicate; conditions in flasks were prepared in duplicate. On the above-indicated number of days in culture, cells from wells or flasks were collected and phenotypes were analyzed (flow cytometry on an Invitrogen Attune NxT cytometer).
# [3] = tested on: CD34+ cells isolated from donor peripheral blood (non-mobilized); assay: Enhancement of hematopoietic stem cells from non-mobilized peripheral blood, flow cytometry, fold change days 2 to 7 (Example 33); format: cell-based; conditions: 8 μM sample compound, normalized fold change days 2 to 7, 3% oxygen
# Protocol: CD34+ cells were isolated from donor peripheral blood. Standard buffy coat separation using ficoll paque was performed. Cells were pelleted and incubated with unlabeled CD64 antibody. Cells then underwent negative depletion using biotinylated CD2, CD3, CD4, CD5, CD8, CD11b, CD14, CD16, CD19, CD20, CD45RA, CD56, CD235 (in some examples CD15, CD25 and other lineage specific antibodies may also be used). Cells which bind these antibodies are depleted using streptavidin beads. The enriched progenitor pool then undergoes cell sorting for CD34+.
# Isolated CD34+ cells were incubated in an in vitro culture media of Alpha MEM without phenol red with 10% (v/v) heat inactivated fetal bovine serum (FBS). When testing compounds of Formula I, two internal controls were used: a positive control (+SF conditions) and a baseline control (i.e. basic conditions (“cytokines only”)). The media components and concentrations used for the compounds tested are described in Table 2. The culture also included an antibiotic solution that includes penicillin, streptomycin, and amphotericin B to avoid contamination. Controls were included because the amount of expansion in samples obtained varies from individual to individual. […]
# Table 3, below, summarizes the relative expansive effect of Compound 1.001 to 1.023 (sample compounds) at the indicated concentration. […] It is calculated as shown below: […]
compound,measurement,setting,value
"CC(C)(C)C(=O)Nc1ccc2c(c1)C(=O)c1cc(N)ccc1-2 [Compound 1.008, N-(7-amino-9-oxo-9H-fluoren-2-yl)pivalamide]",maintenance and expansion of hematopoietic stem cells in culture,"[1]; +1.008 Conditions (250 nM), 19 days in culture",maintained and continue to expand
same,"total number of CD34+, CD34+/CD133+, CD34+/CD133+/CD90+ and CD34+/CD133+/CD90+/CD38 low/− cells (flow cytometric cell counts)","[1]; FIG. 24B-E, versus Base and +SF conditions",increase
same,increase in CD34+ cells from day 2,"[1]; after 19 days in culture, Compound 1.008 250 nM, 3% oxygen, FIG. 25B",greater than 50 fold
same,increase in CD34+/CD133+ cells from day 2,"[1]; after 19 days in culture, Compound 1.008 250 nM, 3% oxygen, FIG. 25C",greater than 50 fold
same,increase in CD34+/CD133+/CD90+ cells from day 2,"[1]; after 19 days in culture, Compound 1.008 250 nM, 3% oxygen, FIG. 25D",~20 fold
same,increase in CD34+/CD133+/CD90+/CD38low/− cells from day 2,"[1]; after 19 days in culture, Compound 1.008 250 nM, 3% oxygen, FIG. 25E",> 12 fold
CC(C)(C)C(=O)Nc1ccc2c(c1)C(O)c1ccccc1-2 (centres unmarked) [Compound 1.010],expansion of CD34+ cells,"[2]; fold change from day 1, up to 21 days in culture, 3% oxygen, FIG. 54B",greater than nine-fold
same,expansion compared with cytokines alone,[2]; up to 21 days,far surpasses
CC(C)(C)C(=O)Nc1ccc2c(c1)C(=O)CC2 [Compound 1.019],CD90 effect (relative expansive effect on CD34+/CD133+/CD90+ cells),[3],++ (0.2 ≤ x < 0.55)
same,CD133 effect (relative expansive effect on CD34+/CD133+ cells),[3],++ (0.2 ≤ x < 0.55)
ER50891 [reference compound],fold increase levels on addition of ER50891 to +1.008 conditions,"[1]; ER50891 100 nM with Compound 1.008 250 nM, 19 days",even further improved
